| melting point [°C] | SMILES |
| --- | --- |
| 167.1 to 168.5 | O=C(Cc1ccc(Cl)c(C(=O)c2cc(Cl)ccc2Cl)c1)Nc1ccccc1 [Compound I-251, 2-[4-Chloro-3-(2,5-dichloro-benzoyl)-phenyl]-N-phenyl-acetamide] |
| 236.9 to 239.3 | Cc1ccc(CC(=O)Nc2ccc(S(N)(=O)=O)cc2)cc1Oc1cc(Cl)ccc1Br [Compound I-30, 2-[3-(2-Bromo-5-chloro-phenoxy)-4-methyl-phenyl]-N-(4-sulfamoyl-phenyl)-acetamide] |
| 175.7 to 178.3 | COc1ccc(CC(=O)Nc2ccccc2Cl)cc1Oc1cc(Cl)cc(C#N)c1 [Compound I-61, 2-[3-(3-Chloro-5-cyano-phenoxy)-4-methoxy-phenyl]-N-(2-chloro-phenyl)-acetamide] |
| 214 to 218 | N#Cc1cc(Oc2c(Cl)ccc(CC(=O)Nc3ccc(S(N)(=O)=O)cc3)c2F)cc(C(F)F)c1 [Compound I-13, 2-[4-Chloro-3-(3-cyano-5-difluoromethyl-phenoxy)-2-fluoro-phenyl]-N-(4-sulfamoyl-phenyl)-acetamide] |
| 209.9 to 211.1 | CCc1ccc(CC(=O)Nc2ccc(S(N)(=O)=O)cc2)cc1Oc1cc(Br)cc(F)c1Cl [Compound I-39, 2-[3-(5-Bromo-2-chloro-3-fluoro-phenoxy)-4-ethyl-phenyl]-N-(4-sulfamoyl-phenyl)-acetamide] |
| 92.4 to 95.5 | Cc1cc(S(=O)(=O)CCN)ccc1NC(=O)Cc1ccc(C)c(Oc2cc(Cl)cc(C#N)c2)c1 [Compound I-154, N-[4-(2-Amino-ethanesulfonyl)-2-methyl-phenyl]-2-[3-(3-chloro-5-cyano-phenoxy)-4-methyl-phenyl]-acetamide] |
| 248.4 to 250.8 | Cc1cc(S(N)(=O)=O)ccc1NC(=O)Cc1ccc(Cl)c(Oc2cc(C#N)cc(C#N)c2)c1F [Compound I-32, 2-[4-Chloro-3-(3,5-dicyano-phenoxy)-2-fluoro-phenyl]-N-(2-methyl-4-sulfamoyl-phenyl)-acetamide] |
| 247.9 to 250.9 | N#Cc1cc(C#N)cc(Sc2cc(CC(=O)Nc3ccc(S(N)(=O)=O)cc3)ccc2Cl)c1 [Compound I-242, 2-[4-Chloro-3-(3,5-dicyano-phenylsulfanyl)-phenyl]-N-(4-sulfamoyl-phenyl)-acetamide] |
| 110.3 to 110.5 | Cc1cc(C(=O)CN2CCOCC2)ccc1NC(=O)Cc1ccc(C)c(Oc2cc(Cl)cc(C#N)c2)c1.O=C(O)C(F)(F)F |
| 252.3 to 254.3 | COc1ccc(CC(=O)Nc2ccc(S(N)(=O)=O)cc2)cc1Oc1cc(C#N)ccc1Cl [Compound I-65, 2-[3-(2-Chloro-5-cyano-phenoxy)-4-methoxy-phenyl]-N-(4-sulfamoyl-phenyl)-acetamide] |
| 214.9 to 218.8 | Cc1cc(S(N)(=O)=O)ccc1NC(=O)Cc1ccc(Cl)c(C(=O)c2cc(Cl)ccc2Cl)c1 [Compound I-249, 2-[4-Chloro-3-(2,5-dichloro-benzoyl)-phenyl]-N-(2-methyl-4-sulfamoyl-phenyl)-acetamide] |
| 199 to 201.9 | N#Cc1cc(C#N)cc(Oc2cc(CC(=O)Nc3ccccc3)ccc2Cl)c1 [Compound I-211, 2-[4-Chloro-3-(3,5-dicyano-phenoxy)-phenyl]-N-phenyl-acetamide] |
| 190.1 to 192.2 | Cc1cc(OCCCS(N)(=O)=O)ccc1NC(=O)Cc1ccc(Cl)c(Oc2cc(Cl)ccc2Br)c1 [Compound I-3, 2-[3-(2-Bromo-5-chloro-phenoxy)-4-chloro-phenyl]-N-[2-methyl-4-(3-sulfamoyl-propoxy)-phenyl]-acetamide] |
| 175 to 177.2 | COc1ccc(CC(=O)Nc2ccc(S(N)(=O)=O)cc2C)cc1Oc1cc(C#N)cc(C(F)F)c1 [Compound I-93, 2-[3-(3-Cyano-5-difluoromethyl-phenoxy)-4-methoxy-phenyl]-N-(2-methyl-4-sulfamoyl-phenyl)-acetamide] |
| 171.3 to 171.6 | COc1ccc(CC(=O)Nc2ccccc2)cc1Oc1cc(Cl)cc(C#N)c1 [Compound I-210, 2-[3-(3-Chloro-5-cyano-phenoxy)-4-methoxy-phenyl]-N-phenyl-acetamide] |
| 214.6 to 216.4 | COc1ccc(CC(=O)Nc2ccc(S(N)(=O)=O)cc2Cl)cc1Oc1cc(C#N)ccc1Cl [Compound I-67, 2-[3-(2-Chloro-5-cyano-phenoxy)-4-methoxy-phenyl]-N-(2-chloro-4-sulfamoyl-phenyl)-acetamide] |
| 213.9 to 216.1 | NS(=O)(=O)c1ccc(NC(=O)Cc2ccc(Cl)c(C(=O)c3cc(Cl)ccc3Cl)c2)cc1 [Compound I-250, 2-[4-Chloro-3-(2,5-dichloro-benzoyl)-phenyl]-N-(4-sulfamoyl-phenyl)-acetamide] |
| 212 to 212.8 | COc1ccc(CC(=O)Nc2ccc(S(N)(=O)=O)cc2Cl)c(F)c1Oc1cc(Cl)cc(C#N)c1 [Compound I-190, 2-[3-(3-Chloro-5-cyano-phenoxy)-2-fluoro-4-methoxy-phenyl]-N-(2-chloro-4-sulfamoyl-phenyl)-acetamide] |

| melting point [°C] | SMILES |
| --- | --- |
| 125.1 to 127 | Cc1cc(CC(=O)Nc2ccccc2Cl)cc(C(=O)c2ccccc2Cl)c1 [Compound I-259, 2-[3-(2-Chloro-benzoyl)-5-methyl-phenyl]-N-(2-chloro-phenyl)-acetamide] |
| 168.3 to 170.4 | COc1ccc(NC(=O)Cc2ccc(C)c(Oc3cc(Cl)cc(C#N)c3)c2)c(C)n1 [Compound I-229, 2-[3-(3-Chloro-5-cyano-phenoxy)-4-methyl-phenyl]-N-(6-methoxy-2-methyl-pyridin-3-yl)-acetamide] |
| 154 to 155.5 | CCc1ccc(CC(=O)Nc2ccccc2Cl)cc1Oc1cc(Cl)ccc1Br [Compound I-16, 2-[3-(2-Bromo-5-chloro-phenoxy)-4-ethyl-phenyl]-N-(2-chloro-phenyl)-acetamide] |
| 223.3 to 225 | Cl.N#Cc1cc(Cl)cc(Oc2c(Cl)ccc(CC(=O)Nc3ccc(S(=O)(=O)NC(=O)CN4CCOCC4)cc3Cl)c2F)c1 |
| 195.3 to 197.2 | CCN(CC)CC(=O)NS(=O)(=O)c1ccc(NC(=O)Cc2ccc(Cl)c(Oc3cc(Cl)cc(C#N)c3)c2F)c(Cl)c1.Cl |
| 189.1 to 189.4 | CCc1ccc(CC(=O)Nc2ccc(S(N)(=O)=O)cc2C)cc1Oc1cc(Cl)cc(C#N)c1 [Compound I-46, 2-[3-(3-Chloro-5-cyano-phenoxy)-4-ethyl-phenyl]-N-(2-methyl-4-sulfamoyl-phenyl)-acetamide] |
| 239.9 to 240.8 | COc1ccc(CC(=O)Nc2ccc(S(N)(=O)=O)cc2C)c(F)c1Oc1cc(Cl)cc(C#N)c1 [Compound I-191, 2-[3-(3-Chloro-5-cyano-phenoxy)-2-fluoro-4-methoxy-phenyl]-N-(2-methyl-4-sulfamoyl-phenyl)-acetamide] |
| 159 to 161.1 | COc1cc(CC(=O)Nc2ccc(S(N)(=O)=O)cc2Cl)cc(Oc2cc(Cl)cc(C#N)c2)c1 [Compound I-136, 2-[3-(3-Chloro-5-cyano-phenoxy)-5-methoxy-phenyl]-N-(2-chloro-4-sulfamoyl-phenyl)-acetamide] |
| 227.3 to 231.4 | Cc1cc(C#N)cc(C)c1Oc1cc(CC(=O)Nc2ccc(S(N)(=O)=O)cc2)ccc1Cl [Compound I-55, 2-[4-Chloro-3-(4-cyano-2,6-dimethyl-phenoxy)-phenyl]-N-(4-sulfamoyl-phenyl)-acetamide] |
| 173 to 174 | CSc1nc(NC(=O)Cc2ccc(C)c(Oc3cc(Cl)cc(C#N)c3)c2)n(C)n1 [Compound I-230, 2-[3-(3-Chloro-5-cyano-phenoxy)-4-methyl-phenyl]-N-(2-methyl-5-methylsulfanyl-2H-[1,2,4]triazol-3-yl)-acetamide] |
| 226 to 227.9 | Cc1cc(CC(=O)Nc2ccc(S(N)(=O)=O)cc2)cc(C(=O)c2cc(Cl)cc(Cl)c2)c1 [Compound I-269, 2-[3-(3,5-Dichloro-benzoyl)-5-methyl-phenyl]-N-(4-sulfamoyl-phenyl)-acetamide] |
| 149.1 to 151.3 | CCc1ccc(CC(=O)Nc2ccc(S(=O)(=O)NC)cc2)cc1Oc1cc(Cl)cc(C#N)c1 [Compound I-48, 2-[3-(3-Chloro-5-cyano-phenoxy)-4-ethyl-phenyl]-N-(4-methylsulfamoyl-phenyl)-acetamide] |
| 216.9 to 218.3 | Cc1ccc(CC(=O)Nc2ccc(C(=O)O)cc2Cl)c(F)c1Oc1cc(C#N)cc(C(F)F)c1 [Compound I-110, 3-Chloro-4-{2-[3-(3-cyano-5-difluoromethyl-phenoxy)-2-fluoro-4-methyl-phenyl]-acetylamino}-benzoic acid] |
| 178 to 179.5 | N#Cc1cc(Cl)cc(Oc2c(Cl)ccc(CC(=O)Nc3ccc(S(=O)(=O)NC(=O)CO)cc3Cl)c2F)c1.[Na] |
| 163.3 to 164.4 | Cc1ccc(CC(=O)Nc2ccccc2Cl)c(F)c1Oc1cc(C#N)cc(C(F)F)c1 [Compound I-86, N-(2-Chloro-phenyl)-2-[3-(3-cyano-5-difluoromethyl-phenoxy)-2-fluoro-4-methyl-phenyl]-acetamide] |
| 172.2 to 173.4 | Cc1cc(S(=O)(=O)NCC(C)O)ccc1NC(=O)Cc1ccc(C)c(Oc2cc(Cl)cc(C#N)c2)c1 (stereo not shown) [Compound I-129, 2-[3-(3-Chloro-5-cyano-phenoxy)-4-methyl-phenyl]-N-[4-(2-hydroxy-propylsulfamoyl)-2-methyl-phenyl]-acetamide] |
| 179.9 to 182 | Cc1ccc(CC(=O)Nc2ccc(S(C)(=O)=O)cc2Cl)c(F)c1Oc1cc(C#N)cc(C(F)F)c1 [Compound I-112, N-(2-Chloro-4-methanesulfonyl-phenyl)-2-[3-(3-cyano-5-difluoromethyl-phenoxy)-2-fluoro-4-methyl-phenyl]-acetamide] |
| 62.3 to 64.1 | Cc1cc(C(=O)CN2CCN(C)CC2)ccc1NC(=O)Cc1ccc(C)c(Oc2cc(Cl)cc(C#N)c2)c1 [Compound I-159, 2-[3-(3-Chloro-5-cyano-phenoxy)-4-methyl-phenyl]-N-{2-methyl-4-[2-(4-methyl-piperazin-1-yl)-acetyl]-phenyl}-acetamide] |

| SMILES | melting point [°C] |
| --- | --- |
| Cc1cc(OCC[C@@H](O)CO)ccc1NC(=O)Cc1ccc(C)c(Oc2cc(Cl)cc(C#N)c2)c1 [Compound I-151, 2-[3-(3-Chloro-5-cyano-phenoxy)-4-methyl-phenyl]-N-[4-((R)-3,4-dihydroxy-butoxy)-2-methyl-phenyl]-acetamide] | 104.9 to 106.4 |

Source: US8329755B2, “Methods for treating retroviral infections” (Roche Palo Alto LLC, priority 2004, dated 2012)
